# Laboratory results published in patent US20240423208A1, “AGRICULTURAL COMPOSITION AND METHOD FOR CULTIVATING PLANTS USING SAME” (KANEKA CORPORATION, priority 2022, published 2024).
# Experiments:
# [1] = tested on: Lettuce (the cultivar: Souther); assay: Experiment 1: lettuce growth, total dry weight after bottom watering; format: in vivo; details: compositions with 15 mass % GSSG, 10 mass % ALN, 5 mass % ferrous material, 15 mass % seaweed extract; diluted 1000-fold, bottom watering 3 and 4 weeks after seeding
# Procedure: Lettuce (the cultivar: Souther) was raised in a plant incubator. Three weeks after the seeding and four weeks after the seeding, a composition comprising 15 mass % oxidized glutathione (GSSG), 10 mass % allantoin (ALN), 5 mass % ferrous material, or 15 mass % seaweed extract, or a composition comprising a combination of 15 mass % GSSG and any of 10 mass % ALN, 5 mass % ferrous material, or 15 mass % seaweed extract was applied to the lettuce. Each composition was diluted 1000-fold, and each resulting solution was applied by bottom watering.
# Four weeks after the seeding, the seedling was transplanted into a pot, grown in a glass greenhouse for two weeks, and then, evaluated (repeated 9 times).
# Assuming that the value of the total dry weight of the lettuce to which water alone was applied was 100, the total dry weight of the lettuce to which each composition was applied was expressed.
# grape VR cell = assay: Experiment 9: cumulative amount of anthocyanin in cultured grape VR cell; format: cell-based; details: GSSG 0.1%, ALN 0.4%; 10 μL at start and 100 μL on 3rd day; measured on 11th day of culture
# Procedure: A grape VR cell was cultured in an LS agar culture medium, and the cumulative amount of anthocyanin was measured. The solution for each treatment section as shown in Table 4 was delivered into the cell cluster by drops in an amount of 10 μL at the beginning of the culture, and in an amount of 100 μL on the 3rd day of culture. The amount of anthocyanin was measured on the 11th day of culture. The culture was performed at 27° C. under light irradiation.
# [2] = tested on: Lettuce (the cultivar: Souther); assay: Experiment 2: lettuce growth under high-temperature stress, total dry weight; format: in vivo; details: diluted 1000-fold, bottom watering, 40° C. for two hours
# Procedure: Lettuce (the cultivar: Souther) was raised in a plant incubator. Three weeks after the seeding and four weeks after the seeding, a fertilizer composition comprising 5 mass % GSSG, 10 mass % ALN, or 20 mass % ALN, a fertilizer composition comprising neither GSSG nor ALN, or a fertilizer composition comprising a combination of 5 mass % GSSG and each concentration of ALN was applied. Each fertilizer composition was diluted 1000-fold, and the resulting solution was applied by bottom watering.
# Four weeks after the seeding, the seedling was transplanted into a pot, subjected to high-temperature stress at 40° C. for two hours in a plant incubator, and grown for one week. Then, the seedling was transferred into a glass greenhouse, grown for one week, and then, evaluated (repeated 9 times).
# Assuming that the value of the total dry weight of the lettuce to which the fertilizer composition comprising neither GSSG nor ALN was applied alone was 100, the total dry weight of the lettuce to which each composition was applied was expressed.
# [3] = tested on: lettuce (the cultivar: Lollo Rosso or Red Oak); assay: Experiment 10: visual evaluation of lettuce coloration after leaf spraying; format: in vivo; design: key: The same degree of coloration as T1 was rated CC; slightly more coloration than T1 was rated BB; much more coloration than T1 was rated AA; details: GSSG 0.125%, ALN 0.5%; sprayed on leaves approximately 1 g/head; one week after spraying; compared with T1
# Procedure: Culture soil was put in a 9 cm plastic pot, and seeded with lettuce (the cultivar: Lollo Rosso or Red Oak). After the seeding, the lettuce was grown in an environmentally controlled greenhouse set at 28° C. during the daytime and at 18° C. during the nighttime. Three weeks after the seeding, each test solution shown in Table 5 was sprayed on the leaves at approximately 1 g/head. One week after the spraying, the appearance of the lettuce was visually observed, and the degree of coloration was evaluated. The evaluation was based on a comparison with T1 (the control). The same degree of coloration as T1 was rated CC, slightly more coloration than T1 was rated BB, and much more coloration than T1 was rated AA.
Compound,total dry weight of the lettuce (water alone = 100) [1],cumulative amount of anthocyanin (grape VR cell),"total dry weight of the lettuce (fertilizer composition with neither GSSG nor ALN = 100) ([2]; ALN 0%, GSSG 5 mass %)","degree of coloration, Lollo Rosso [3]","degree of coloration, Red Oak [3]","total dry weight of the lettuce (fertilizer composition with neither GSSG nor ALN = 100) ([2]; ALN 10%, GSSG 0% or 5%)","total dry weight of the lettuce (fertilizer composition with neither GSSG nor ALN = 100) ([2]; ALN 20%, GSSG 0% or 5%)"
[Fe+2] [Ferrous iron],98,–,–,–,–,–,–
oxidized glutathione [GSSG],113,neither GSSG alone nor ALN alone affected,108,CC,BB,–,–
"NC(=O)NC1NC(=O)NC1=O (stereo not drawn) [ALN, 5-ureidohydantoin]",123,neither GSSG alone nor ALN alone affected,–,BB,BB,104,115
